Reference: ChEMBL document CHEMBL1201862, “PubChem BioAssay data set” (2004)
The source made the active and inactive calls.

Key:
[1] = biological target: T1, Trace amine-associated receptor 1 (Homo sapiens, UniProt Q96RJ0); test: Counterscreen for agonists of the human trace amine associated receptor 1 (hTAAR1): Fluorescence-based cell-based high throughput dose response assay to identify hTAAR1 agonist that also desensitize TAAR1 receptor response.; format: functional
T1 sequence (Q96RJ0 whole entry): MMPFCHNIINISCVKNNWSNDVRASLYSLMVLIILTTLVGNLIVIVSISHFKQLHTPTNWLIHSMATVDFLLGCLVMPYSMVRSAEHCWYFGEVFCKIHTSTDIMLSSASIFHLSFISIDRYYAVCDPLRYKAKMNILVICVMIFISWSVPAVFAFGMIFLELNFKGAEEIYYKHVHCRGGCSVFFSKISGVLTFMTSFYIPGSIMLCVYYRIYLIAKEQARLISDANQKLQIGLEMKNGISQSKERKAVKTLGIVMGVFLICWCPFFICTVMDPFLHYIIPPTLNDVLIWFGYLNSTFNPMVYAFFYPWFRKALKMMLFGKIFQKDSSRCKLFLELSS

cells [2] = format: functional, cell-based
[3] = biological target: T1, Trace amine-associated receptor 1; test: Fluorescence-based cell-based high throughput dose response assay to identify agonists of the human trace amine associated receptor 1 (TAAR1).; format: functional
cells [4] = format: functional, cell-based; remark: listed apart in the source
[5] = biological target: T2, Carboxy-terminal domain RNA polymerase II polypeptide A small phosphatase 1 (Homo sapiens, UniProt Q9GZU7); test: inhibitors of CTDSP1, concentration-response testing, biochemical assay, absorbance-based, actives from ultra-high-throughput screening (AID 540297); format: functional
T2 sequence (Q9GZU7 whole entry): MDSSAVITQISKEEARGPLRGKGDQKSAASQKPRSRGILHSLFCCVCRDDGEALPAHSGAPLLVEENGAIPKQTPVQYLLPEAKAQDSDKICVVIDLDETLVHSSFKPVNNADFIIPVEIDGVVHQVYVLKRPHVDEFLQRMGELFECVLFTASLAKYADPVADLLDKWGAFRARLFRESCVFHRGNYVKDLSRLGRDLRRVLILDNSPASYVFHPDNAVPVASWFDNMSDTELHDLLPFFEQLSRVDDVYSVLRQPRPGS

[6] = biological target: T3, Tyrosine-protein phosphatase non-receptor type 11 (Homo sapiens, UniProt Q06124); test: SHP2 phosphatase inhibition, dose response, selectivity assay for STEP inhibitor project, biochemical (AID 602367); format: functional; details: read-out: IC50_Mean
T3 sequence (Q06124 whole entry): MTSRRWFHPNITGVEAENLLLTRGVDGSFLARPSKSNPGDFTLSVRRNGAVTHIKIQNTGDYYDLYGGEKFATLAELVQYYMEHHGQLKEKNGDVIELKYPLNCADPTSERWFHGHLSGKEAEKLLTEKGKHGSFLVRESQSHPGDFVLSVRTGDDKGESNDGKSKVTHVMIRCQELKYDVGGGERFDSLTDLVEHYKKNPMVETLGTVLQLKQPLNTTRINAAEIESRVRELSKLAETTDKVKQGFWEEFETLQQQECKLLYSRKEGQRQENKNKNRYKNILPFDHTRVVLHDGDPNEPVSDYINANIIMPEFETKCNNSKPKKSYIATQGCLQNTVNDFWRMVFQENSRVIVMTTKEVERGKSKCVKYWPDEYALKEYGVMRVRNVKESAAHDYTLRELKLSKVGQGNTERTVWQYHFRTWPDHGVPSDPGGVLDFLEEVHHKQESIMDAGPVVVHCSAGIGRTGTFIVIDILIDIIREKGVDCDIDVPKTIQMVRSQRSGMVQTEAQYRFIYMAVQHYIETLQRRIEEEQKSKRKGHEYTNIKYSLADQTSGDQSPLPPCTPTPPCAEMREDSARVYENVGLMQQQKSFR

[7] = biological target: T4, Tyrosine-protein phosphatase non-receptor type 5 (Homo sapiens, UniProt P54829); test: STEP phosphatase inhibitors, confirmation, biochemical, fluorescence intensity, uHTS hits (AID 602372); format: functional; details: read-out: IC50_Mean
T4 sequence (P54829 whole entry): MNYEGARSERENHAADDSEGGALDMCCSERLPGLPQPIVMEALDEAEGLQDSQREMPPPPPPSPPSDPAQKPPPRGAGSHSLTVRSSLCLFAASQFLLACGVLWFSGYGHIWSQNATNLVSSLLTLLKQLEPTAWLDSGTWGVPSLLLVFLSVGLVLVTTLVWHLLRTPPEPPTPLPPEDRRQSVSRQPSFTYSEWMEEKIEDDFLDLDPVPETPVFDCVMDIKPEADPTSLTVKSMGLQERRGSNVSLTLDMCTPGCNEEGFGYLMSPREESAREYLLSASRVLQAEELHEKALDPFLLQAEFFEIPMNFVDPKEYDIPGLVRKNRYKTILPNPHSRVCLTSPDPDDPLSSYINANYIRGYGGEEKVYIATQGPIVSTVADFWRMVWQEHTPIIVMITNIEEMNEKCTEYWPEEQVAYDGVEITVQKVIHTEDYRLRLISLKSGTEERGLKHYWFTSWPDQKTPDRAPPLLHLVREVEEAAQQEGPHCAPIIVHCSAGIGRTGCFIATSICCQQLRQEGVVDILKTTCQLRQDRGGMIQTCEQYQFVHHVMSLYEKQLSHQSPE

[8] = biological target: Dual specificity protein phosphatase 3 (Homo sapiens, UniProt P51452); test: VHR phosphatase inhibition, dose response, selectivity assay for STEP inhibitor project, biochemical (AID 602374); format: functional; details: read-out: IC50_Mean
Chain of Dual specificity protein phosphatase 3 (P51452 whole entry): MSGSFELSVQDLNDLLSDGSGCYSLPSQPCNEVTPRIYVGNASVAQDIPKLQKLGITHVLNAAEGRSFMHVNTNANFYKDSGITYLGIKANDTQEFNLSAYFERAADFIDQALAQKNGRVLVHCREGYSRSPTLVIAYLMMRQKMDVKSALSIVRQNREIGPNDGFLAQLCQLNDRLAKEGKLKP

[9] = biological target: T5, Low molecular weight phosphotyrosine protein phosphatase (Homo sapiens, UniProt P24666); format: functional; details: read-out: IC50_Mean
T5 sequence (P24666 whole entry): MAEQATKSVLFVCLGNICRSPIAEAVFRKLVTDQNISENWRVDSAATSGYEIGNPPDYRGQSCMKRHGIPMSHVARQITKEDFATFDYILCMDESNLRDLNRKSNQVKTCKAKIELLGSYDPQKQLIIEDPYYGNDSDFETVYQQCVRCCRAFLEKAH

[10] = biological target: T5, Low molecular weight phosphotyrosine protein phosphatase; format: functional; details: read-out: IC50_Mean; remark: listed apart in the source
[11] = biological target: T6, Long-chain-fatty-acid--AMP ligase FadD28 (Mycobacterium tuberculosis, UniProt P9WQ59); test: Fluorescence polarization aasay to screen for inhibitors that compete for the binding of FadD28 to a bisubstrate Measured in Biochemical System Using Plate Reader - 2147-01_Inhibitor_Dose_CherryPick_Activity.; format: functional, Mycobacterium tuberculosis H37Rv
T6 sequence (P9WQ59 whole entry): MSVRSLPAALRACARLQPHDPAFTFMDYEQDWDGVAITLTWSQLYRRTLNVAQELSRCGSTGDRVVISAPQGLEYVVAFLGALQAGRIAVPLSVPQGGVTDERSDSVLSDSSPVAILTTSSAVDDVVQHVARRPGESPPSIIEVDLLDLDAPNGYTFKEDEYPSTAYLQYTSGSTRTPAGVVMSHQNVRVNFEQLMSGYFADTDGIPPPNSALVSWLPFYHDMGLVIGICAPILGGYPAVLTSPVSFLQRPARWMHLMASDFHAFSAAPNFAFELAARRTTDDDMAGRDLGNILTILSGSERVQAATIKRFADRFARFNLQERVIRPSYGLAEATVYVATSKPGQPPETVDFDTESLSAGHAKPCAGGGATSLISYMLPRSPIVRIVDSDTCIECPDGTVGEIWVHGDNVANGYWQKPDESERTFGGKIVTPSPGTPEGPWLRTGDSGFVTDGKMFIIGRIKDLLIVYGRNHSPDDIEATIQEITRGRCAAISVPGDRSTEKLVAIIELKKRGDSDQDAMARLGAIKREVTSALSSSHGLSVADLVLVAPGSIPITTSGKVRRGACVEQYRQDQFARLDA

[12] = biological target: T7, Nuclear receptor subfamily 0 group B member 1 (Homo sapiens, UniProt P51843); format: functional, cell-based;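 further: HEK293T cells transfected with SF-1 and DAX-1 plus StAR promoter luciferase reporter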
T7 sequence (P51843 whole entry): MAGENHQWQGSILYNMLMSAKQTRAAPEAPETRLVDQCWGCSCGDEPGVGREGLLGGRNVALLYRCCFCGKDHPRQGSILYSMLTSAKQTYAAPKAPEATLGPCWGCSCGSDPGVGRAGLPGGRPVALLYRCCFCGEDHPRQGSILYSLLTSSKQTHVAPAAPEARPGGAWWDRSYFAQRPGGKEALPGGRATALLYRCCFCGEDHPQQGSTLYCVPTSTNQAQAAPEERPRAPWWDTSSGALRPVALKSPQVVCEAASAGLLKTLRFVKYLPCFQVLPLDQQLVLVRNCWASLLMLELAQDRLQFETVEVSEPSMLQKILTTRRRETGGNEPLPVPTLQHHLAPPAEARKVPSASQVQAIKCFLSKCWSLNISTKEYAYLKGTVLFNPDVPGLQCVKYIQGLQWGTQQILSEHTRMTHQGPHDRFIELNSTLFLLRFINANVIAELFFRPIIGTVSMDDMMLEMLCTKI

Structure (SMILES)	IC50 [1]	IC50 (cells [2])	EC50 [3]	EC50 (cells [4])	further results
COc1ccc(CNCCc2ccccc2F)c(OC)c1C	3.46 µM (active)	> 29.9 µM (inactive)	0.498 µM (active)	> 29.9 µM (inactive)	
O=C(COc1ccc(/C=N/NC(=O)c2ccccc2O)cc1)Nc1ccccc1					IC50 [5]: 5.32 µM (active); IC50 [6]: 4.22 µM (active); IC50 [7]: 11.7 µM (active); IC50 [8]: 3.88 µM (active); IC50 [9]: 39.9 µM (inactive); IC50 [10]: 16.4 µM (active)
COC(=O)c1ccc(COc2ccc(/C=N/Nc3cccc(C(=O)O)c3)cc2)cc1					AC50 [11]: 48.9 µM (active)
CCCCCCCCN1C(=O)[C@@H](CC(=O)NCCc2ccccc2OC)C[C@@]2(C(=O)OC)C1=C[C@H](C(C)(C)C)O[C@@H]2C	6.93 µM (active)	> 29.9 µM (inactive)	5.23 µM (active)	> 29.9 µM (inactive)	
O=C(NCCc1ccccc1)c1nc(C(F)(F)F)[nH]c1-c1ccccc1	9.43 µM (active)	> 29.9 µM (inactive)	4.78 µM (active)	> 29.9 µM (inactive)	
COC(=O)Nc1nc2ccc(C(=O)c3cccs3)cc2[nH]1 [NOCODAZOLE]					IC50 [12]: > 833 nM (active)
